Reference: the supplement of paper PMC10307832

Tests used:
Experiment in all cases: relative viability (nuclei count vs DMSO), 5 days (fraction); higher = more cells survive
Apatinib + Phenformin = compound: N#CC1(c2ccc(NC(=O)c3cccnc3NCc3ccncc3)cc2)CCCC1 [Apatinib] + N=C(N)NC(=N)NCCc1ccccc1 [Phenformin] (partner 250 µM)
Procedure, shortened: (§1)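 Nuclei were stained with Hoechst during a one-step fixation (final 0.05% Triton X-100, 1% formaldehyde, 1 ug/ml Hoechst) carried out 5 days after dosing, then counted on 4× images. The cells, lung cancer lines in 1536-well plates, had been dosed by pin tool the day after seeding with one drug alone or a fixed anchor-drug dose plus five library-drug doses (not always all listed) in √10 steps. Relative viability is the nuclei count in treated wells divided by that in vehicle wells, and each value is the median of duplicate plates.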

Metformin + Bortezomib = compound: CN(C)C(=N)NC(=N)N [Metformin] + CC(C)C[C@H](NC(=O)[C@H](Cc1ccccc1)NC(=O)c1cnccn1)B(O)O [Bortezomib] (partner 0.002 µM)
Procedure, shortened: as §1

Metformin + Vorinostat = compound: CN(C)C(=N)NC(=N)N [Metformin] + O=C(CCCCCCC(=O)Nc1ccccc1)NO [Vorinostat] (partner 1 µM)
Procedure, shortened: as §1

Apatinib + AZD7762 = compound: N#CC1(c2ccc(NC(=O)c3cccnc3NCc3ccncc3)cc2)CCCC1 [Apatinib] + NC(=O)Nc1cc(-c2cccc(F)c2)sc1C(=O)N[C@H]1CCCNC1 [AZD7762] (partner 0.2 µM)
Procedure, shortened: as §1

Cell Line | relative viability (Apatinib + Phenformin; first compound 0.08 µM) | relative viability (Apatinib + Phenformin; first compound 0.253 µM) | relative viability (Apatinib + Phenformin; first compound 0.8 µM) | relative viability (Apatinib + Phenformin; first compound 2.53 µM) | relative viability (Apatinib + Phenformin; first compound 8 µM) | relative viability (Metformin + Bortezomib; first compound 10 µM) | relative viability (Metformin + Bortezomib; first compound 31.62 µM) | relative viability (Metformin + Bortezomib; first compound 100 µM) | relative viability (Metformin + Bortezomib; first compound 316.23 µM) | relative viability (Metformin + Bortezomib; first compound 1000 µM) | relative viability (Metformin + Vorinostat; first compound 10 µM) | relative viability (Metformin + Vorinostat; first compound 31.62 µM) | relative viability (Metformin + Vorinostat; first compound 100 µM) | relative viability (Metformin + Vorinostat; first compound 316.23 µM) | relative viability (Metformin + Vorinostat; first compound 1000 µM) | relative viability (Apatinib + AZD7762; first compound 0.08 µM) | relative viability (Apatinib + AZD7762; first compound 0.253 µM) | relative viability (Apatinib + AZD7762; first compound 0.8 µM) | relative viability (Apatinib + AZD7762; first compound 2.53 µM) | relative viability (Apatinib + AZD7762; first compound 8 µM)
COR-L23 | 0.5 | 0.421 | 0.427 | 0.395 | 0.438 | 1.04 | 0.867 | 0.86 | 0.882 | 0.99 | 0.312 | 0.304 | 0.406 | 0.288 | 0.362 | – | – | – | – | –
NCI-H2342 | 0.526 | 0.588 | 0.585 | 0.569 | 0.577 | – | – | – | – | – | – | 0.868 | 0.837 | 0.745 | 0.853 | 0.454 | 0.464 | 0.536 | 0.385 | 0.353
NCI-H522 | 0.708 | 0.696 | 0.638 | 0.617 | 0.669 | – | – | – | – | – | 1.15 | 1.11 | 0.923 | 0.99 | 1.03 | 0.884 | 1 | 0.867 | 0.623 | 0.794
NCI-H2023 | 0.384 | 0.481 | 0.404 | 0.329 | 0.301 | – | 1.03 | 0.964 | – | 1.1 | 0.292 | 0.712 | 0.354 | 0.496 | 0.38 | – | – | – | – | –
COR-L 105 | 0.523 | 0.598 | 0.426 | 0.45 | 0.337 | 1.07 | 1.05 | 1.04 | 0.874 | 1.17 | 0.795 | 0.807 | 0.895 | 0.848 | 0.495 | – | – | – | – | –
Calu-6 | – | – | – | – | – | 0.842 | 0.957 | 1.06 | 0.817 | 0.66 | – | – | – | – | – | – | – | – | – | –
NCI-H2228 | 0.423 | 0.284 | 0.223 | 0.29 | 0.301 | 1.44 | 1.09 | – | 0.956 | 1.13 | 0.843 | 0.672 | 0.825 | 0.597 | 0.635 | – | – | – | – | –
IA-LM | – | – | – | – | – | – | 1.14 | 1.03 | 0.893 | 0.624 | 1.01 | 1.04 | 1.03 | 0.901 | 0.962 | – | – | – | – | –
NCI-H520 | 0.661 | 0.567 | 0.56 | 0.391 | 0.391 | 0.777 | 0.716 | 0.75 | 0.67 | 0.928 | 0.748 | 0.757 | 0.84 | 0.714 | 0.763 | – | – | – | – | –
NCI-H1944 | 0.209 | 0.207 | 0.179 | 0.18 | 0.159 | – | – | – | – | – | 0.465 | 0.651 | 0.571 | 0.59 | 0.631 | 0.498 | 0.564 | 0.477 | 0.316 | 0.285
NCI-H1395 | 0.464 | 0.419 | 0.454 | 0.412 | 0.459 | – | – | – | – | – | 0.855 | 1.24 | 0.819 | 0.868 | 0.414 | 0.438 | 0.425 | 0.407 | 0.361 | 0.373
SK-MES-1 | 0.699 | 0.615 | 0.616 | 0.574 | 0.451 | – | – | – | – | – | 0.839 | 1.03 | 1.11 | 0.919 | 0.99 | – | – | – | – | –
EBC-1 | – | – | – | – | – | 0.699 | 0.666 | 0.618 | 0.541 | 0.59 | – | – | – | – | – | – | – | – | – | –
NCI-H661 | 0.279 | 0.273 | 0.273 | 0.263 | 0.277 | 0.867 | 0.881 | 1.36 | 0.917 | 1.06 | 0.851 | 0.928 | 0.927 | 0.818 | 0.82 | – | – | – | – | –
NCI-H1563 | 0.642 | 0.705 | 0.75 | 0.517 | 0.623 | 0.917 | 0.866 | 1.02 | 0.877 | 0.954 | – | – | – | – | – | – | – | – | – | –
NCI-H1623 | 0.601 | 0.624 | 0.636 | 0.511 | 0.616 | – | – | – | – | – | – | – | – | – | – | – | – | – | – | –
NCI-H1648 | – | – | – | – | – | – | – | – | – | – | – | 0.5 | 1.07 | 0.703 | 0.91 | 0.937 | 0.667 | 0.612 | 0.567 | 0.601
NCI-H2170 | 0.462 | 0.404 | 0.373 | 0.355 | 0.335 | – | – | – | – | – | 0.55 | 0.777 | 0.79 | 0.813 | 0.795 | 0.871 | 0.901 | 0.719 | 0.721 | 0.706
NCI-H1793 | 0.352 | 0.318 | 0.327 | 0.224 | 0.189 | – | – | – | – | – | 0.943 | 0.832 | 0.727 | 0.662 | 1.02 | 0.669 | 0.41 | 0.257 | 0.209 | 0.116
NCI-H1792 | 0.5 | 0.227 | 0.235 | 0.111 | 0.184 | – | 0.918 | 1.04 | 0.922 | 0.827 | – | – | – | – | – | 0.881 | 0.68 | 0.528 | 0.508 | 0.211
UMC-11 | 0.333 | 0.318 | 0.287 | 0.293 | 0.266 | 0.56 | 0.914 | 0.791 | 0.694 | 0.618 | 0.471 | 0.452 | 0.483 | 0.377 | 0.406 | – | – | – | – | –
NCI-H1299 | – | – | – | – | – | 1.09 | 1.06 | 1.08 | 1.06 | 1.06 | – | – | – | – | – | – | – | – | – | –
SK-LU-1 | 0.607 | 0.594 | 0.471 | 0.413 | 0.454 | 1.45 | 1.2 | 1.1 | 1.06 | 1.27 | 0.723 | 0.645 | 0.759 | 0.667 | 0.766 | – | – | – | – | –
SW 1573 | 0.485 | 0.426 | 0.376 | 0.397 | 0.387 | 1.19 | 1.15 | 0.963 | 1 | 1.36 | 0.724 | 0.722 | 0.68 | 0.701 | 0.755 | – | – | – | – | –
LK-2 | 0.485 | 0.51 | 0.467 | 0.287 | 0.258 | – | – | – | – | – | 0.232 | 0.264 | 0.273 | 0.339 | 0.397 | 0.262 | 0.468 | 0.302 | 0.155 | 0.248
NCI-H2009 | 0.494 | 0.497 | 0.382 | 0.264 | 0.219 | 0.694 | 1.16 | 1.12 | 1 | 1.09 | 0.715 | 0.706 | 0.857 | 0.83 | 0.75 | – | – | – | – | –
